Article PMC12428754, “Testing Strategies for Metabolite-Mediated Neurotoxicity” (International Journal of Molecular Sciences, 2025)
Like-named read-outs stand apart in the source and are kept apart here.

Tests used:
LUHMES cells = experiment: MitoMet (UKN4b) neurite outgrowth assay; type: cell-based, human; settings: for IC25: read-out: BMC25 neurite outgrowth; for fold change between BMC25 values of parent and metabolite (potency ratio, parent divided by metabolite): listed under the metabolite, >1 = metabolite more potent
Description: Figure 1 (A) A strategy scheme to assess metabolite-mediated hazard in NAMs used for neurotoxicity or developmental neurotoxicity. Parent and metabolite compounds are tested separately in the respective assay. This strategy is applicable when there is prior knowledge of metabolite formation. A decision rule based on the relative toxicities (X) of the parent and metabolite may be applied to decide whether next-generation risk assessment (NGRA) should be applied to the metabolite. The value of X may be defined according to the problem formulation and the NAM used. (B) An assay scheme of the neurite outgrowth assay used here for exemplification: Proliferating LUHMES cells were replated one day before differentiation was initiated (day −1). After two days (day 2) in differentiation medium, the cells were replated into assay format (96-well). At this point, neurite growth was re-initiated. The cells were treated with toxicants 1 h after replating. Neurite outgrowth and viability were determined 24 h later, using automated high content imaging. (C) Comparison of neurite outgrowth of cultures treated with bromethalin and desmethyl-bromethalin one exemplary parent/metabolite pair (chemical structures shown). […] The curves are based on data from three independent experiments and were fitted using a four-parameter Hill function. Data points shown are arithmetic means of data from independent experiments ±SEM. In each independent experiment, the technical replicates were measured and averaged. A benchmark response (BMR) of 25% was used as specified in the detailed assay description, and the respective benchmark concentration (BMC25) was determined. […] (D) Microscopic images of calcein-stained LUHMES cells. Similar images are used for neurite quantification. Treatment with 40 nM of the parent (left) or metabolite (right). The scale bar in orange corresponds to 50 µm. […] It stands under panel C and to the right of panel D, and was assigned to C.
The MitoMet neurite outgrowth assay was performed as previously described. In brief, all cell culture dishes and flasks were pre-coated with 50 μg/mL poly-l-ornithine (PLO) and 1 μg/mL fibronectin. Proliferating LUHMES cells were maintained in AdvDMEM/F12 containing L-glutamine (2 mM), N2 supplement (1x), and FGF (40 ng/mL). For pre-differentiation, the cells were replated at a density of 46,000 cells/cm^2 one day prior to the induction of differentiation (defined as the day of differentiation, Day −1). Differentiation was initiated by exchanging the culture medium for AdvDMEM/F12 supplemented with L-glutamine (2 mM), N2 supplement (1x), dibutyryl-cAMP (1 mM), tetracycline (1 µg/mL), and GDNF (2 ng/mL). After two days of differentiation (Day 2), the cells were replated (100,000 cells/cm^2) into 96-well plates. The final assay medium consisted of glucose-free AdvDMEM/F12 supplemented with galactose (18 mM), L-glutamine (2 mM), and tetracycline (1 µg/mL). One hour after replating, the cells were treated with a 10× concentrated stock solution of the test compound. Neurite outgrowth and viability were determined 24 h later, using automated high content imaging.
The image acquisition and analysis were conducted according to established protocols. The cells were stained with Hoechst H-33342 (1 µg/mL) to visualise nuclei and calcein-AM (1 µM) to label viable cell structures. Fluorescent images were acquired using an automated imaging system.

[1] = system: hiPSC-derived neural crest-like cells; experiment: cMINC (UKN2) neural crest cell migration assay; type: cell-based, human; settings: listed under the metabolite
Description: Figure 6 The transfer of the metabolisation module to the neural crest cell migration assay (cMINC). (A) A schematic of the cMINC (circular migration of neural crest cells) assay. The cells were seeded around a central stopper to create a cell-free circular area. Migration was initiated 24 h after seeding by removing the stopper. This is defined as the day of migration (DoM) 0. On DoM 1, the cells were exposed to toxicants. After 24 h of exposure, both cell migration and viability were quantified, using automated high-content imaging. (B) Compatibility of the metabolisation module (preincubation with 500 µg/mL S9 at 37 °C for 2 h) with the cMINC assay: The setup was as described in Figure 4 and as exemplified in Figure 5A. No compound was added (solvent control). The S9 mixture (at 500 µg/mL ± NADPH) was added to the normal cell culture medium of the cMINC assay (so that the addition was 10% of the total volume). Data are from three independent experiments. (C,D) The concentration-dependent effects on migration were evaluated for metabolite mixtures generated from bromethalin (C) or chlorfenapyr (D). […] The arrows indicate the direction of sensitivity shift between NADPH-dependent and -independent metabolite mixtures, with accompanying fold change values. The concentrations are given as nominal concentrations of the parent compound. Abbreviations: n.s., not significant. TEXT PRINTED IN THE PICTURE: (C) Bromethalin: x30 | (D) Chlorfenapyr: x15
The MINC assay was performed as previously described. Briefly, 96-well plates were prepared by inserting a central 2 mm diameter stopper (Platypus Technologies, Madison, WI, USA) into pre-coated wells with a composite poly-L-ornithine (PLO; 10 µg/mL), fibronectin (1 µg/mL), and laminin (1 µg/mL) matrix. […] After a further 24 h (DoM 2), cell migration and viability were assessed. […] High content imaging was performed, and data were analysed using the RingAssay V1 software (http://invitrotox.uni-konstanz.de/, accessed on 3 February 2025). […]

[2] = Homo sapiens, benchmark response 25%, neurite area, 24 h exposure, three independent experiments

SMILES | IC25 (LUHMES cells; [2]) [µM] | fold change between BMC25 values of parent and metabolite (potency ratio, parent divided by metabolite) (LUHMES cells) [fold] | increase in potency of metabolite compared to parent (BMC25 ratio) [1] | IC25 (LUHMES cells; Homo sapiens, 24 h) [µM] | IC25 (LUHMES cells; benchmark response 25%, neurite area, 24 h exposure, three independent experiments) [µM]
O=C(c1ccccc1)c1ccc(O)cc1 [4-Hydroxybenzophenone] | 78 | > 6 | over three | – | –
CN(c1c(Br)cc(Br)cc1Br)c1c([N+](=O)[O-])cc([N+](=O)[O-])cc1C(F)(F)F [Bromethalin] | – | – | – | 0.79 | 0.79
CCOCn1c(-c2ccc(Cl)cc2)c(C#N)c(Br)c1C(F)(F)F [Chlorfenapyr] | > 10 | – | – | – | –
N#Cc1c(-c2ccc(Cl)cc2)[nH]c(C(F)(F)F)c1Br [Tralopyril] | 0.35 | > 29 | 28 fold | – | –
